# Reference: US12064577B2, “Drug-coated balloon” (Intersect ENT, Inc., priority 2015, dated 2024)
# Where two headings read alike, the source gives them in different places.
# Experiments:
# [1] = Drug uptake into sinus tissue after drug coated balloon delivery, ovine model (HPLC of tissue samples); type: in vivo; conditions: other: drug coated balloon expanded in the maxillary sinus, sheep, Example 3 balloon (solvent vapor annealed coating) expanded 5 minutes in maxillary sinus, tissue sampled after 7 days
# Experimental: (§1) A 30 mm 80A Pellethane® compliant balloon was cleaned with 70% isopropanol and dried in an oven. The balloon was then treated with oxygen plasma and immediately spray coated with a mometasone furoate formulation listed in Table 1. Post-spray pass drying was conducted with nitrogen gas. Next, the drug coated balloon was treated by solvent vapor annealing (i.e., exposed to a solvent vapor) in a sealed chamber saturated with ethanol for four hours at room temperature. After solvent vapor annealing, the balloon was re-folded and heat set using a custom pleating machine. The coated balloon was then sheathed and packaged under nitrogen gas and sterilized by electron beam irradiation.
# (§2) A drug coated balloon made using the process described in Example 3 was advanced to a sheep maxillary sinus using a rigid 4 mm endoscope and expanded for 5 minutes, and then deflated and removed from the nostril. After 7 days the animal was sacrificed and tissue samples obtained from the maxillary sinus and surrounding tissues. […] Plasma concentration of mometasone furoate was also measured over 7 days. Referring to Table 3 below and FIG. 3, mometasone furoate (MF) plasma concentration was low and found to decrease over the 7 day period from an initially low value. […] Low systemic exposure generally lowers the risk of a patient experiencing side effects from the delivered drug.
# [2] = Plasma concentration of mometasone furoate after drug coated balloon delivery to ovine maxillary sinus; type: in vivo; conditions: other: drug coated balloon expanded in the maxillary sinus, sheep, read-out: MF Plasma Concentration
# Experimental: as §1, §2
smiles,measurement,setting,value
C[C@@H]1C[C@H]2[C@@H]3CCC4=CC(=O)C=C[C@]4(C)[C@@]3(Cl)[C@@H](O)C[C@]2(C)[C@@]1(OC(=O)c1ccco1)C(=O)CCl [mometasone furoate],concentration at 7 days,[1]; read-out: mometasone furoate concentration in maxillary sinus tissue,146 ng/g
same,concentration at 7 days,"[1]; tissues surrounding the maxillary sinus, read-out: mometasone furoate concentration in tissues surrounding the maxillary sinus",55 ng/g
same,concentration at 0 day,[2]; day 0 after Example 3 balloon delivery to maxillary sinus,0.3 ng/mL
same,concentration at 1 day,[2]; day 1 after Example 3 balloon delivery to maxillary sinus,0.3 ng/mL
same,concentration at 4 day,[2]; day 4 after Example 3 balloon delivery to maxillary sinus,0.05 ng/mL
same,concentration at 7 day,[2]; day 7 after Example 3 balloon delivery to maxillary sinus,< 0.01 ng/mL
